What was measured:
S. mutans (ATCC #25175) [1] = test: Inhibition of biofilm formation, crystal violet staining in saliva-coated 96-well plate; type: cell-based, Streptococcus mutans; details: for Inhibition against biofilm formation (in words): 1 wt % glucose and 2 wt % Amadori compound, versus no Amadori compound; for Average absorbance (590 nm), amount of biofilm: test sample 1 wt % glucose and 2 wt % Amadori compound, co-incubated overnight at 37° C., lower absorbance = less biofilm
Protocol: In this Example, the ability of Amadori compound from the reaction of glucose with glycine to inhibit biofilm formation was investigated. A sample of cultured S. mutans (ATCC #25175) bacterium was grown in TSB medium overnight and subsequently centrifuged to form a pellet, and then the centrifuged S. mutans was re-suspended with TSB (trypticase soy broth) containing 1% glucose and adjusted to OD610=0.5 (a concentration with an optical reading of 0.5 at 610 nm for a 1-cm light path). A 50 microliter sample of the re-suspended S. mutans (OD610=0.5) was co-incubated with a 50 microliter test sample. The test sample contained 1 wt % of glucose and 2 wt % of Amadori compound from the reaction of glucose with glycine. The 100 μL total of the re-suspended S. mutans (OD610=0.5) and test sample, representing a clarified saliva, was co-incubated in a 96-well plate which was pre-coated with the clarified saliva and then left overnight at 37° C. After the co-incubation period, the supernatant liquid was aspirated from the well plate. A 50 microliter amount of crystal violet was added to each well and permitted to stain any biofilm for a period of 10 minutes. The well plate was washed with 100 μL of PBS. The amount of biofilm was determined by irradiating the well plate with electromagnetic radiation having a wavelength of 590 nm and measuring the absorbance. The lower the absorbance reading, the less the amount of biofilm detected.

S. mutans (ATCC #25175) [2] = test: Inhibition of glucose metabolism with Streptococcus mutans (GC-MS of remaining α- and β-glucose); type: cell-based; details: for Glucose inhibition (%) from Example 5: versus Comparative Example 1 (no Amadori compound)
Protocol: In this Example, the ability of Amadori compound from the reaction of glucose with glycine to inhibit glucose metabolism with Streptococcus mutans was investigated. A stock glucose solution of 0.4 wt % glucose dissolved in distilled water (0.4 g/100 mL) was prepared. A stock Amadori compound from the reaction of glucose with glycine solution of 4.0 wt % Amadori compound from the reaction of glucose with glycine dissolved in distilled water (0.4 g/10 mL) was prepared. A bacterial solution was prepared as follows: S. mutans (ATCC #25175) was cultured overnight in TSB medium and then the resultant bacterial pellet was re-suspended bacterial to OD610=0.8 (a concentration with an optical reading of 0.8 at 610 nm for a 1-cm light path) with phosphate buffered saline (pH=7.4) (PBS). In accordance with Example 5, a test sample comprising 1 mL of the bacterial solution, 0.5 mL of the Amadori compound from the reaction of glucose with glycine solution and 0.5 mL of the glucose solution was subjected to incubation at a temperature of 37° C., representing normal human body temperature. Then, 200 μL of the test sample was transferred into individual HPLC vials after 10 minutes of the incubation period, after 30 minutes of the incubation period, and after 60 minutes of the incubation period. The HPLC vial cap was used to seal the vial. Immediately the HPLC vials were placed in a 100° C. water bath for about 5 minutes to denaturize the enzymes. The resultant products were subjected to gas chromatography-mass spectrometry (GC-MS) testing and analysis to determine the amounts of the α- and β-glucose forms present. In Table 1, the number of counts during MS detection for each respective α- and β-glucose form detected in the respective sample at the respective incubation time is indicated, the number of counts representing the amount of the respective glucose form present. In Comparative Example 1, the testing of Example 5 was repeated but on a control sample comprising 1 mL of the bacterial solution, 0.5 mL of the glucose solution and 0.5 mL of deionized water. In other words, Comparative Example 1 had no Amadori compound from the reaction of glucose with glycine. The control sample was also subjected to incubation at a temperature of 37° C. for the same respective time periods.

[3] = 10 minutes incubation at 37° C., same sample
[4] = 30 minutes incubation at 37° C., same sample
[5] = 60 minutes incubation at 37° C., same sample

| Structure (SMILES) | Inhibition against biofilm formation (in words) (S. mutans (ATCC #25175) [1]; listed as Amadori compound from the reaction of glucose with arginine) | Average absorbance (590 nm), amount of biofilm (S. mutans (ATCC #25175) [1]) | Inhibition against biofilm formation (in words) (S. mutans (ATCC #25175) [1]; listed as Amadori compound from the reaction of glucose with glycine) | α-glucose, number of counts during MS detection (S. mutans (ATCC #25175) [2]; 10 minutes incubation at 37° C., 1 mL bacterial solution + 0.5 mL 4.0 wt % compound solution + 0.5 mL 0.4 wt % glucose solution) | Total glucose (α + β), number of counts during MS detection (S. mutans (ATCC #25175) [2]; [3]) | β-glucose, number of counts during MS detection (S. mutans (ATCC #25175) [2]; [3]) | Glucose inhibition (%) from Example 5 (S. mutans (ATCC #25175) [2]; 10 minutes incubation) | Total glucose (α + β), number of counts during MS detection (S. mutans (ATCC #25175) [2]; [4]) | α-glucose, number of counts during MS detection (S. mutans (ATCC #25175) [2]; [4]) | β-glucose, number of counts during MS detection (S. mutans (ATCC #25175) [2]; [4]) | Glucose inhibition (%) from Example 5 (S. mutans (ATCC #25175) [2]; 30 minutes incubation) | Total glucose (α + β), number of counts during MS detection (S. mutans (ATCC #25175) [2]; [5]) | α-glucose, number of counts during MS detection (S. mutans (ATCC #25175) [2]; [5]) | β-glucose, number of counts during MS detection (S. mutans (ATCC #25175) [2]; [5]) | Glucose inhibition (%) from Example 5 (S. mutans (ATCC #25175) [2]; 60 minutes incubation) | Inhibition of glucose metabolization / degradation (in words) (S. mutans (ATCC #25175) [2]; co-incubated with S. mutans and glucose, versus no Amadori compound) | Inhibition of glucose metabolism (S. mutans (ATCC #25175) [2]; within the incubation time period of from 10 to 60 minutes) | Inhibition against biofilm formation (in words) (S. mutans (ATCC #25175) [1]; listed as Amadori compound from the reaction of glucose with glutamic acid) |
| --- | --- | --- | --- | --- | --- | --- | --- | --- | --- | --- | --- | --- | --- | --- | --- | --- | --- | --- |
| N=C(N)NCCC[C@H](NCC(=O)[C@@H](O)[C@H](O)[C@H](O)CO)C(=O)O [Example 2, N-(1-deoxy-fructos-1-yl) arginine] | relatively weak inhibition | 1.2808 |  |  |  |  |  |  |  |  |  |  |  |  |  |  |  |  |
| O=C(O)CNCC(=O)[C@@H](O)[C@H](O)[C@H](O)CO [Example 1, N-(1-deoxy-fructos-1-yl)glycine] |  | 0.2885 | very strong inhibition | 1753564 counts | 5564912 counts | 3811348 counts | 56.4% | 6220880 counts | 1912144 counts | 4308736 counts | 59.9% | 5403991 counts | 1724203 counts | 3679788 counts | 70.1% | inhibited glucose metabolization | at least 56% |  |
| O=C(O)CC[C@H](NCC(=O)[C@@H](O)[C@H](O)[C@H](O)CO)C(=O)O [Example 4, N-(1-deoxy-fructos-1-yl)glutamic acid] |  | 0.5476 |  |  |  |  |  |  |  |  |  |  |  |  |  |  |  | very strong inhibition |
